The nature of data set [1]: Absorbance and fluorescence measurements (excitation maximum, emission maximum, quantum yield vs coumarin 151). In kind it is physicochemical. Set-up: key to Quantum Yield: fraction relative to coumarin 151 in ethanol standard. The note with it: measurements run with methanol; for λex: absorbance/excitation maximum; for Quantum Yield: coumarin 151 in ethanol as standard; for Quantum Yield / λem: 2.5 mm slit width; for λem: emission maximum.

The conditions of data set [2]: previously published amine, comparison in Example I; cited from earlier work.

Like-named read-outs stand apart in the source and are kept apart here.

In the case of `COc1cccc(-c2nc3c(nc4ccccn43)c3cc(OC)ccc23)c1` [Compound 16a, 2-methoxy-5-(3-methoxyphenyl)pyrido[2′,1′:2,3]imidazo[4,5-c]isoquinoline], in data set [1], the λex is on record as 361 nm, the “Quantum Yield” value was found to be 0.05 and the λem is on record as 417 nm. In data set [2], the Quantum Yield was 0.02, the emission maxima was 505 nm and the excitation maxima is 292 nm.

Take `COc1cc(/C=C/c2nc3nc(-c4cc(OC)cc(OC)c4)c(/N=C/c4cc(OC)cc(OC)c4)n3nc2C)cc(OC)c1` [Compound 62, (E)-1-(3,5-dimethoxyphenyl)-N-(6-(3,5-dimethoxyphenyl)-3-((E)-3,5-dimethoxystyryl)-2-methylimidazo[1,2-b][1,2,4]triazin-7-yl)methanimine]: in data set [1], the λex came out at 506 nm, the “Quantum Yield” value is given as 0.10 and the λem came to 589 nm.

As for `Cc1nn2c(/N=C/c3cccs3)c(-c3cccs3)nc2nc1/C=C/c1cccs1` [Compound 63, (E)-N-(2-methyl-6-(thiophen-2-yl)-3-((E)-2-(thiophen-2-yl)vinyl)imidazo[1,2-b][1,2,4]triazin-7-yl)-1-(thiophen-2-yl)methanimine], in data set [1], the λex was found to be 572 nm, the “Quantum Yield” value is reported as 0.19 and the λem came out at 615 nm.

In the case of `COc1cc(/C=C/c2nc3nc(-c4cc(OC)c(OC)c(OC)c4)c(/N=C/c4cc(OC)c(OC)c(OC)c4)n3nc2C)cc(OC)c1OC` [Compound 64, (E)-N-(2-methyl-6-(3,4,5-trimethoxyphenyl)-3-((E)-3,4,5-trimethoxystyryl)imidazo[1,2-b][1,2,4]triazin-7-yl)-1-(3,4,5-trimethoxyphenyl)methanimine], in data set [1], the λex is recorded as 533 nm, the “Quantum Yield” value came to 0.10 and the λem stood at 611 nm.

As to `Cc1nn2c(NCc3ccccc3)c(-c3ccccc3)nc2nc1/C=C/c1ccccc1` [Compound 74, (E)-N-benzyl-2-methyl-6-phenyl-3-styrylimidazo[1,2-b][1,2,4]triazin-7-amine], in data set [1], the λex came out at 498 nm, the “Quantum Yield” value came out at 0.24 and the λem turned out to be 636 nm.

For `Cc1nn2c(NCc3ccccc3)c(-c3ccc4ccccc4c3)nc2nc1/C=C/c1ccc2ccccc2c1` [Compound 75, (E)-N-benzyl-2-methyl-6-(naphthalen-2-yl)-3-(2-(naphthalen-2-yl)vinyl)imidazo[1,2-b][1,2,4]triazin-7-amine], in data set [1], the λex came out at 529 nm, the “Quantum Yield” value worked out at 0.34 and the λem is reported as 646 nm.

On to `COc1ccc(/C=C/c2nc3nc(-c4ccc(OC)cc4)c(NCc4ccccc4)n3nc2C)cc1` [Compound 76, (E)-N-benzyl-6-(4-methoxyphenyl)-3-(4-methoxystyryl)-2-methylimidazo[1,2-b][1,2,4]triazin-7-amine], for which, in data set [1], the λex is 499 nm, the “Quantum Yield” value is recorded as 0.24 and the λem is recorded as 639 nm.

Turning to `Cc1cc(C)cc(-c2nc3ccccn3c2N)c1` [Compound 101, 2-(3,5-dimethylphenyl)imidazo[1,2-a]pyridin-3-amine], in data set [1], the λex amounted to 343 nm, the “Quantum Yield” value was 0.28 and the λem was 474 nm.

For `COc1cc(OC)cc(-c2nc3cccnn3c2N)c1` [Compound lot, 2-(3,5-dimethoxyphenyl)imidazo[1,2-b]pyridazin-3-amine], in data set [1], the λex was determined as 407 nm, the “Quantum Yield” value worked out at 0.02 and the λem is given as 546 nm.

In the case of “(E)-2,3,4-trimethoxy-9-methyl-5-(3,4,5-trimethoxyphenyl)-10-(3,4,5-trimethoxystyryl)-[1,2,4]triazino[3′, 2′: 2,3]imidazo[4,5-c]isoquinolines [Compound 80]”, in data set [1], the λex turned out to be 499 nm, the “Quantum Yield” value is recorded as 0.25 and the λem stood at 604 nm.

With “(E)-5-(3,5-dimethoxyphenyl)-10-(3,5-dimethoxystyryl)-2,4-dimethoxy-9-methyl-[1,2,4]triazino[3′, 2′: 2,3]imidazo[4,5-c]isoquinolines [Compound 79]”, in data set [1], the λex was determined as 498 nm, the “Quantum Yield” value is reported as 0.18 and the λem is recorded as 608 nm.

The record behind these values is US20260071117A1, “FUNABLE FLUORESCENT COMPOUNDS AND USES THEREOF” (Arizona Board of Regents on Behalf of the University of …, priority 2021, published 2026).
